The source of these data is US20240238423A9, “TETRAHYDROISOQUINOLINE HETEROBIFUNCTIONAL BCL-XL DEGRADERS” (Treeline Biosciences, Inc., priority 2022, published 2024).

The target of this experiment is T1, Human BCL-XL protein (N-terminal HiBiT tagged BCL-XL in HT1080 cells) (Homo sapiens, UniProt Q07817).
T1 construct: expressed in transfected cells; host or cells: HT-1080 (ATCC CCL-121), stably transduced with lentivirus pLV-UBC-N-HiBiT-BCL-XL-PGK-puro and selected with puromycin
As to the kind of experiment: HiBiT based degradation assay. The settings on record: HT1080 cells expressing HiBiT-BCL-XL; for Ymin (24 h) / Ymin (6 h): BCL-XL degradation normalized with DMSO control; for DC50: BCL-XL degradation. The class given is cell-based. The procedure, abridged:
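This HiBiT degradation assay measured loss of BCL-XL in HT1080 cells that stably express an N-terminal HiBiT-BCL-XL fusion delivered by lentivirus. Cells were added to compound-spotted 384-well plates, and luminescence was read on a PHERAstar FSX reader. Signal was expressed relative to DMSO controls, curves were fitted by four-parameter logistic regression, and for hook-shaped curves the Ymin point served as the bottom plateau when calculating EC50.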
A general note: The HiBiT peptide binds its large partner to form an active luciferase.

Read-outs that look alike come from different tables or passages of the source.

T1 sequence (Q07817 whole entry): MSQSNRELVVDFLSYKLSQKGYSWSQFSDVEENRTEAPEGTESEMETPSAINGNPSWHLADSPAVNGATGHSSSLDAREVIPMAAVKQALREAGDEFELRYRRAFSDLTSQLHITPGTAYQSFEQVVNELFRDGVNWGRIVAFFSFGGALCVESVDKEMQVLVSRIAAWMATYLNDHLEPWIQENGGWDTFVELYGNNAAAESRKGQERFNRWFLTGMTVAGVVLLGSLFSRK

Consider `Cc1c(Oc2ccc(CCN3CCN(c4cccc5c(C6CCC(=O)NC6=O)nn(C)c45)CC3)cc2)cccc1-c1ccc(N2CCc3cccc(C(=O)Nc4nc5ccccc5s4)c3C2)nc1C(=O)O` (stereo not shown) [Compound 241, 6-[8-(1,3-benzothiazol-2-ylcarbamoyl)-3,4-dihydro-1H-isoquinolin-2-yl]-3-[3-[4-[2-[4-[3-(2,6-dioxo-3-piperidyl)-1-methyl-indazol-7-yl]piperazin-1-yl]ethyl]phenoxy]-2-methyl-phenyl]pyridine-2-carboxylic acid], for which the “Ymin (24 h)” value (24 h) is “B (50% ≤ Ymin < 70%)”. For the setting “24 h, read-out: EC50 (24 h)”, the DC50 was less than 100 nM.

On to `Cc1c(OCCCC[C@@H]2CCCN(CC(=O)Nc3cccc4c(C5CCC(=O)NC5=O)nn(C)c34)C2)cccc1-c1ccc(N2CCc3cccc(C(=O)Nc4nc5ccccc5s4)c3C2)nc1C(=O)O` (stereo partly drawn) [Compound 186a, 6-[8-(1,3-benzothiazol-2-ylcarbamoyl)-3,4-dihydro-1H-isoquinolin-2-yl]-3-[3-[4-[(3R)-1-[2-[[3-(2,6-dioxo-3-piperidyl)-1-methyl-indazol-7-yl]amino]-2-oxo-ethyl]-3-piperidyl]butoxy]-2-methyl-phenyl]pyridine-2-carboxylic acid], for which, under “24 h”, the “Ymin (24 h)” value is listed as “B (50% ≤ Ymin < 70%)”. Also, under “24 h, read-out: EC50 (24 h)”, the DC50 was less than 100 nM.

Regarding `Cc1c(OCCCN2CCN(CC3CCN(c4ccc5c(C6CCC(=O)NC6=O)nn(C)c5c4)CC3)CC2)cccc1-c1ccc(N2CCc3cccc(C(=O)Nc4nc5ccccc5s4)c3C2)nc1C(=O)O` (stereo not shown) [Compound 189, 6-(8-(benzo[d]thiazol-2-ylcarbamoyl)-3,4-dihydroisoquinolin-2(1H)-yl)-3-(3-(3-(4-((1-(3-(2,6-dioxopiperidin-3-yl)-1-methyl-1H-indazol-6-yl)piperidin-4-yl)methyl)piperazin-1-yl)propoxy)-2-methylphenyl)picolinic acid], the “Ymin (24 h)” value (24 h) is listed as “A (Ymin < 50%)”. For the same compound, the DC50 (24 h, read-out: EC50 (24 h)) is less than 100 nM.

For `Cc1cc(OCCCN2CCN(CC(=O)Nc3cccc4c(C5CCC(=O)NC5=O)nn(C)c34)CC2)ccc1-c1ccc(N2CCc3cccc(C(=O)Nc4nc5ccccc5s4)c3C2)nc1C(=O)O` (stereo not shown) [Compound 242, 6-[8-(1,3-benzothiazol-2-ylcarbamoyl)-3,4-dihydro-1H-isoquinolin-2-yl]-3-[4-[3-[4-[2-[[3-(2,6-dioxo-3-piperidyl)-1-methyl-indazol-7-yl]amino]-2-oxo-ethyl]piperazin-1-yl]propoxy]-2-methyl-phenyl]pyridine-2-carboxylic acid], the “Ymin (6 h)” value (6 h) was “C (Ymin ≥ 70%)”. The “Ymin (24 h)” value (24 h) is on record as “C (Ymin ≥ 70%)”. Further, the DC50 is, setting by setting: (6 h, read-out: EC50 (6 h)) 1000 to 10000 nM; (24 h, read-out: EC50 (24 h)) less than 100 nM.

As for `Cc1c(OCCC[C@@H]2CCN(CC(=O)Nc3ccc4c(C5CCC(=O)NC5=O)nn(C)c4c3)[C@@H](C)C2)cccc1-c1ccc(N2CCc3cccc(C(=O)Nc4nc5ccccc5s4)c3C2)nc1C(=O)O` (stereo partly drawn) [Compound 343c, 6-(8-(benzo[d]thiazol-2-ylcarbamoyl)-3,4-dihydroisoquinolin-2(1H)-yl)-3-(3-(3-((2S,4R)-1-(2-((3-(2,6-dioxopiperidin-3-yl)-1-methyl-1H-indazol-6-yl)amino)-2-oxoethyl)-2-methylpiperidin-4-yl)propoxy)-2-methylphenyl)picolinic acid], the “Ymin (24 h)” value (24 h) was “A (Ymin < 50%)”. Under “24 h, read-out: EC50 (24 h)”, the DC50 was less than 100 nM.

For `Cc1c(O[C@H]2CC[C@@H](CCC(=O)N3CCN(c4ccc5c(C6CCC(=O)NC6=O)nn(C)c5c4)CC3)CC2)cccc1-c1ccc(N2CCc3cccc(C(=O)Nc4nc5ccccc5s4)c3C2)nc1C(=O)O` (stereo partly shown) [Compound 138b, 6-(8-(benzo[d]thiazol-2-ylcarbamoyl)-3,4-dihydroisoquinolin-2(1H)-yl)-3-(3-(((1s,4s)-4-(3-(4-(3-(2,6-dioxopiperidin-3-yl)-1-methyl-1H-indazol-6-yl)piperazin-1-yl)-3-oxopropyl)cyclohexyl)oxy)-2-methylphenyl)picolinic acid], the “Ymin (24 h)” value (24 h) is “B (50% ≤ Ymin < 70%)”. Further, the DC50 (24 h, read-out: EC50 (24 h)) is less than 100 nM.

As for `Cc1c(OCCCC2CC3(C2)CN(CC(=O)Nc2ccc4c(C5CCC(=O)NC5=O)nn(C)c4c2)C3)cccc1-c1ccc(N2CCc3cccc(C(=O)Nc4nc5ccccc5s4)c3C2)nc1C(=O)O` (stereo not shown) [Compound 286, 6-[8-(1,3-benzothiazol-2-ylcarbamoyl)-3,4-dihydro-1H-isoquinolin-2-yl]-3-[3-[3-[2-[2-[[3-(2,6-dioxo-3-piperidyl)-1-methyl-indazol-6-yl]amino]-2-oxo-ethyl]-2-azaspiro[3.3]heptan-6-yl]propoxy]-2-methyl-phenyl]pyridine-2-carboxylic acid], where the note is “24 h”, the “Ymin (24 h)” value is on record as “A (Ymin < 50%)”. Moreover, where the note is “24 h, read-out: EC50 (24 h)”, the DC50 is less than 100 nM.

In the case of `Cc1c(O[C@H]2CC[C@H](CCCN3CCN(c4cccc5c(C6CCC(=O)NC6=O)nn(C)c45)C[C@@H]3C)CC2)cccc1-c1ccc(N2CCc3cccc(C(=O)Nc4nc5ccccc5s4)c3C2)nc1C(=O)O` (stereo partly drawn) [Compound 275b, 6-(8-(benzo[d]thiazol-2-ylcarbamoyl)-3,4-dihydroisoquinolin-2(1H)-yl)-3-(3-(((1R,4r)-4-(3-((2S)-4-(3-(2,6-dioxopiperidin-3-yl)-1-methyl-1H-indazol-7-yl)-2-methylpiperazin-1-yl)propyl)cyclohexyl)oxy)-2-methylphenyl)picolinic acid], for the setting “24 h”, the “Ymin (24 h)” value is listed as “C (Ymin ≥ 70%)”. In addition, for the setting “24 h, read-out: EC50 (24 h)”, the DC50 was less than 100 nM.

With `Cc1c(O[C@H](C)CCC2CCN(CC(=O)Nc3ccc4c(C5CCC(=O)NC5=O)nn(C)c4c3)CC2)cccc1-c1ccc(N2CCc3cccc(C(=O)Nc4nc5ccccc5s4)c3C2)nc1C(=O)O` (stereo partly drawn) [Compound 162b, 6-[8-(1,3-benzothiazol-2-ylcarbamoyl)-3,4-dihydro-1H-isoquinolin-2-yl]-3-[3-[(1R)-3-[1-[2-[[3-(2,6-dioxo-3-piperidyl)-1-methyl-indazol-6-yl]amino]-2-oxo-ethyl]-4-piperidyl]-1-methyl-propoxy]-2-methyl-phenyl]pyridine-2-carboxylic acid], the “Ymin (6 h)” value (6 h) is “C (Ymin ≥ 70%)”. In addition, the “Ymin (24 h)” value (24 h) was “B (50% ≤ Ymin < 70%)”. In addition, the DC50 is, setting by setting: (6 h, read-out: EC50 (6 h)) 100 to 1000 nM; (24 h, read-out: EC50 (24 h)) less than 100 nM.

Consider `Cc1c(O[C@H]2CC[C@H](CCC(=O)N3CCN(c4cccc5c(C6CCC(=O)NC6=O)nn(C)c45)CC3)CC2)cccc1-c1ccc(N2CCc3cccc(C(=O)Nc4nc5ccccc5s4)c3C2)nc1C(=O)O` (stereo partly shown) [Compound 146a, 6-(8-(benzo[d]thiazol-2-ylcarbamoyl)-3,4-dihydroisoquinolin-2(1H)-yl)-3-(3-(((1r,4r)-4-(3-(4-(3-(2,6-dioxopiperidin-3-yl)-1-methyl-1H-indazol-7-yl)piperazin-1-yl)-3-oxopropyl)cyclohexyl)oxy)-2-methylphenyl)picolinic acid], for which the “Ymin (6 h)” value (6 h) was “A (Ymin < 50%)”. Moreover, for the setting “24 h”, the “Ymin (24 h)” value was “A (Ymin < 50%)”. Besides, the DC50 by setting is: (6 h, read-out: EC50 (6 h)) 100 to 1000 nM; (24 h, read-out: EC50 (24 h)) less than 100 nM.

Turning to `Cc1c(OCCCN2CCN(CC(=O)Nc3cccc4c(C5CCC(=O)NC5=O)nn(C)c34)C[C@H]2C(F)(F)F)cccc1-c1ccc(N2CCc3cccc(C(=O)Nc4nc5ccccc5s4)c3C2)nc1C(=O)O` (stereo partly drawn) [Compound 246b, 6-(8-(benzo[d]thiazol-2-ylcarbamoyl)-3,4-dihydroisoquinolin-2(1H)-yl)-3-(3-(3-((2S)-4-(2-((3-(2,6-dioxopiperidin-3-yl)-1-methyl-1H-indazol-7-yl)amino)-2-oxoethyl)-2-(trifluoromethyl)piperazin-1-yl)propoxy)-2-methylphenyl)picolinic acid], the “Ymin (24 h)” value (24 h) is reported as “B (50% ≤ Ymin < 70%)”. Also, the DC50 (24 h, read-out: EC50 (24 h)) is less than 100 nM.
